In one data set the target is KCNQ1/NE1 (Homo sapiens, UniProt P51787). The data set is described as follows: Two-electrode voltage-clamp in Xenopus laevis oocytes, KCNQ1/KCNE1. It is filed as cell-based. Details: dose or concentration left out as unconfirmed. The note with it: oocyte expression. Here is the method:
(§1) Female Xenopus laevis extracted ovaries were purchased from eNASCO (LM00935MX, eNASCO Fort Atkinson, Wis.). […] Approximately 50 nl cRNA (about 50 ng) was injected for KCNQ1, KCNQ4, and KCNQ5 using a Nanoject microinjector (Drummond, Broomall, Pa., USA). For co-expression of KCNQ2 and KCNQ3 and of KCNQ1 and KCNE1, cRNA's were mixed in equal molar ratios before injection of approximately 50 nl. […] Oocytes were kept in Culture Barth solution at 19° C. which was changed daily and currents were recorded after 3 to 5 days.
KCNQ channel currents expressed in Xenopus laevis oocytes were recorded using a two-electrode voltage-clamp. […]
(§2) Data were acquired by means of an Axograph X software (Axograph Scientific, Sydney, AU) and analyzed using Graph Pad Prism (GraphPad Software Inc., CA, USA). […]
(§3) After steady channel current was recorded in the presence of Retigabine at its EC75, recorded oocyte was washed with the recording solution until its steady current returned to its normal level without the presence of any drugs. Then the channel steady current was recorded in the presence of the test compound at its EC75. The percent efficacy was then expressed as: % efficacy=(C2/C 1)×100 where C2 is the recorded steady current in the presence of follow-on compound at its EC75 and C1 is the recorded steady current in the presence of Retigabine at its EC75.
On the technique in general: Two-electrode voltage clamp holds a large cell at a set potential and records current.

The target in a further data set is KCNQ2/3 (Homo sapiens, UniProt O43525+O43526). The data set is described as follows: Two-electrode voltage-clamp in Xenopus laevis oocytes, KCNQ2/3. It counts as cell-based. Here is the method:
as §1
(§4) KCNQ channel currents expressed in Xenopus laevis oocytes were recorded using a two-electrode voltage-clamp. […] The oocytes were placed in custom built perfusion chambers connected to a continuous flow system and impaled with a current electrode and a voltage-clamp electrode pulled from borosilicate glass on a Flaming/Brown Micropipette Puller (Sutter Instruments Co, Novato, Calif., USA).
(§5) All compounds were dissolved in DMSO to obtain concentrated stock solutions. On the day of electrophysiological experiments the stock solutions were thawed and diluted in recording solution to their final concentrations. The final DMSO concentration never exceeded 0.1%. Compound delivery was performed using a custom built multi-barrel apparatus connected to the flow system.
as §2, §3

The nature of data set [1]: Rotarod test (motor impairment, acute toxicity). Conditions: CF-1, in vivo, oral; behavioral rotarod model, mouse. On the procedure:
Prior to MES testing, compound dosed mice are scrutinized for abnormal neurologic status as defined by motor impairment on a slowly turning (6 rpm) rotarod apparatus (Model 755, Series 8, IITC Life Sciences, Woodland Hills, Calif.). […] These measurements are done at the same time points as the MES assay. Untreated normal mice are able to maintain balance on the rotarod for at least one minute without falling. Median toxicity of a compound (TD50, the dose of a drug that results in motor impairment in 50% of animals) is determined.
For orientation: In the rotarod test animals must keep their balance on a rotating rod.

In the next data set the target is KCNQ4 (Homo sapiens, UniProt P56696). The data set is described as follows: Two-electrode voltage-clamp in Xenopus laevis oocytes, KCNQ4. It is filed as cell-based. On the procedure: as §1, §4, §5, §2, §3
The next data set concerns the target KCNQ5 (Homo sapiens, UniProt Q9NR82). Briefly: Two-electrode voltage-clamp in Xenopus laevis oocytes, KCNQ5. It counts as cell-based. Here is the method: as §1, §4, §5, §2, §3

Chain of KCNQ1/NE1 (P51787 whole entry): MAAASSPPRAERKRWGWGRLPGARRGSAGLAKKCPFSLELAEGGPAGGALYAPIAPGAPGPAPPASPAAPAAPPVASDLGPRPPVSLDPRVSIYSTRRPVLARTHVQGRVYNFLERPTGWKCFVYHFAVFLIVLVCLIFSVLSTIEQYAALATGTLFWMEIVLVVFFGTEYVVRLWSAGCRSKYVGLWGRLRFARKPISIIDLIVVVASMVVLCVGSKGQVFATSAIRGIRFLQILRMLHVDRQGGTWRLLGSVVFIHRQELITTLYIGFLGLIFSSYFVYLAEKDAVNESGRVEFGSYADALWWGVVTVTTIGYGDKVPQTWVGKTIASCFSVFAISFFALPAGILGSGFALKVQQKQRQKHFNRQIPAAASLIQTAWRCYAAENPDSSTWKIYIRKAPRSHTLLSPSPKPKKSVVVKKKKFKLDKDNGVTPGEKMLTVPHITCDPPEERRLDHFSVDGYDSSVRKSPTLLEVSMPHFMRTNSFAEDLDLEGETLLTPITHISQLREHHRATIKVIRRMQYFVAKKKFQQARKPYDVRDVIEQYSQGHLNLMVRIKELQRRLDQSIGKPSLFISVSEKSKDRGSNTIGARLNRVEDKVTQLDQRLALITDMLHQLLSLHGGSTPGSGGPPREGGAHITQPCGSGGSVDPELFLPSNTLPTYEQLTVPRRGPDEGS

Usually EC50 stands for the concentration that produces a half-maximal response. The term TD50 denotes the dose at which the toxic effect under study appears in half of the subjects. For the compound `Cc1cc(N2CCc3cc(F)ccc3C2)cc(C)c1NC(=O)CC(C)(C)C` [compound A, N-[4-(6-fluoro-3,4-dihydro-1H-isoquinolin-2-yl)-2,6-dimethylphenyl]-3,3-dimethyl butanamide], the “KCNQ1/NE1 Block (%)” value on KCNQ1/NE1 was determined as 3.5%. Further, the EC50 on KCNQ2/3 amounted to 350 nM; on KCNQ4, 630 nM; on KCNQ5, 350 nM. In addition, the “KCNQ2/3 Efficacy Relative to Retigabine (%)” value on KCNQ2/3 (oocyte expression, at EC75) is reported as 143%. The compound also came in with a TD50 at 2 h in data set [1] of 12.6 mg/kg. In addition, at KCNQ4 (oocyte expression, at EC75), the “KCNQ4 Efficacy Relative to Retigabine (%)” value worked out at 100%. Also, the “KCNQ5 Efficacy Relative to Retigabine (%)” value at KCNQ5 (oocyte expression, at EC75) amounted to 100%.

Source of the values: US8993593B2, “N-(4-(6-fluoro-3,4-dihydroisoquinolin-2(1H)-yl)-2,6-dimethylphenyl)-3,3-dimethylbutanamide as potassium channel modulators” (Valeant Pharmaceuticals International, priority 2006, dated 2015).
